Measurements published in patent publication US20150148234A1, “HERBICIDE-RESISTANT SUNFLOWER PLANTS WITH MULTIPLE HERBICIDE RESISTANT ALLELES OF AHASL1 AND METHODS OF USE” (NIDERA S.A., priority 2013, published 2015).

Experiments:
[1] = tested on: AHAS enzyme of A122T/A205V heterozygous hybrid (IA9 × R733); experiment: AHAS enzyme activity assay, Set 1; format: biochemical, sunflower; conditions: 100 μM, Set 1 (FIG. 13)
Protocol: (§1) Twelve greenhouse grown sunflower plants from each of the lines depicted in Table 21 were bulked and subjected to an AHAS enzyme activity assay via the method of Singh et al. (1988) Anal. Biochem. 171:173-179. Each activity assay was repeated twice. Due to the large number of samples, the experiment was split into two sets (Table 21).
(§2) Young, actively growing leaves, from four week old plantlets, were ground in a mortar and pestle with liquid N2 and extracted with a buffer composed of 100 mM Pyruvate, 200 mM KH2PO4, 20 mM MgCl2, 2 mM thiamine pyrophosphate and […]. Plant extracts were then spun through a 10 mL Zeba™ TM desalt spin column (Pierce #89893) as per the manufacturer's recommendation. The inhibition assay was performed as described by Singh et al. (1988) Anal. Biochem. 171:173-179. Assays were conducted in a 96-well format. Fifty μl of inhibitor was added to each well containing 50 μl of soluble protein extract to give final concentrations of 0.78, 1.56, 3.125, 6.25, 12.5, 25, 50 and 100 μM imazamox or 0.78, 1.56, 3.125, 6.25, 12.5, 25, 50 and 100 μM imazapyr. Zero herbicide controls were also included for each line. Reactions were processed as outlined by Singh et al. (1988) Anal. Biochem. 171:173-179. Absorbance was measured at 530 nm. AHAS activity, expressed as the mean of the absorbance values for each treatment, was presented as a percentage of the mean of the zero-herbicide controls.

[2] = tested on: AHAS enzyme of A205V homozygous hybrid (IA9 × RHA426); experiment: AHAS enzyme activity assay, Set 1; format: biochemical, sunflower; conditions: A205V homozygous hybrids; 100 μM; Set 1 (FIG. 13)
Protocol: as §1, §2

[3] = tested on: AHAS enzyme of A122T homozygous hybrid (cmsGM40 × R733); experiment: AHAS enzyme activity assay, Set 1; format: biochemical, sunflower; conditions: 100 μM, Set 1 (FIG. 13)
Protocol: as §1, §2

[4] = tested on: sunflower entry 10-hybrid (IMI CMS × GM40 restorer, A205V/A122T hetero/double); experiment: field phytotoxicity trial North Dakota 2006 (Example 3); format: in vivo
Protocol: (§3) • Spray volume: 10 gallons per acre (GPA) (or 100 liters/ha) for backpack sprayer or 20 GPA (or 200 liters/ha) for tractor mounted boom • Growth Stage at Herbicide Application: 2-4 leaves • Entry 15 (WT Maintainer line) was left unsprayed in all treatment blocks.
(§4) Phytotoxicity ratings were assessed at 7 and 21 days following herbicide application.
(§5) The data was subjected to an ANOVA analysis and the means from the 3 repetitions are presented in Table 7 (phytotoxicity at 7 days post-treatment) and Table 8 (phytotoxicity at 21 days post-treatment).

[5] = tested on: sunflower entry 13-hybrid (GM40 CMS × GM40 restorer, A122T homo); experiment: as above; format: in vivo
Protocol: as §3, §4, §5

[6] = tested on: sunflower entry 14-hybrid (GM40 CMS × GM40 restorer, A122T homo); experiment: as above; format: in vivo
Protocol: as §3, §4, §5

[7] = tested on: sunflower entry 8-hybrid (WT × GM40 restorer, A122T hetero); experiment: as above; format: in vivo
Protocol: as §3, §4, §5

[8] = tested on: sunflower entry 15-hybrid (WT × GM40 restorer, A122T hetero); experiment: as above; format: in vivo
Protocol: as §3, §4, §5

[9] = tested on: sunflower entry 12-hybrid (IMI CMS × GM40 restorer, A205V/A122T hetero/double); experiment: as above; format: in vivo
Protocol: as §3, §4, §5

[10] = tested on: sunflower entry 6-hybrid (IMI CMS × IMI restorer, A205V homo); experiment: as above; format: in vivo
Protocol: as §3, §4, §5

[11] = tested on: sunflower entry 3-hybrid (WT × IMI restorer, A205V hetero); experiment: as above; format: in vivo
Protocol: as §3, §4, §5

[12] = tested on: sunflower entry 1-hybrid (WT × IMI restorer, A205V hetero); experiment: as above; format: in vivo
Protocol: as §3, §4, §5

[13] = tested on: sunflower entry 4-line (IMI Restorer, A205V homo); experiment: as above; format: in vivo
Protocol: as §3, §4, §5

[14] = tested on: sunflower entry 9-line (GM40 restorer, A122T homo); experiment: as above; format: in vivo
Protocol: as §3, §4, §5

[15] = tested on: sunflower entry 16-hybrid (WT × GM40 restorer, A122T hetero); experiment: as above; format: in vivo
Protocol: as §3, §4, §5

[16] = tested on: sunflower entry 11-hybrid (GM40 CMS × IMI restorer, A205V/A122T hetero/double); experiment: as above; format: in vivo
Protocol: as §3, §4, §5

[17] = tested on: sunflower entry 7-hybrid (WT-CMS × IMI restorer, A205V hetero); experiment: as above; format: in vivo
Protocol: as §3, §4, §5

[18] = 7 DAT, 50 g ai/ha imazamox + 0.25% NIS
[19] = 7 DAT, 100 g ai/ha imazamox + 0.25% NIS
[20] = 7 DAT, 200 g ai/ha imazamox + 0.25% NIS
[21] = 21 DAT, 50 g ai/ha imazamox + 0.25% NIS
[22] = 21 DAT, 100 g ai/ha imazamox + 0.25% NIS
[23] = 21 DAT, 200 g ai/ha imazamox + 0.25% NIS
[24] = 7 DAT, 160 g ai/ha imazapyr + 0.25% NIS
[25] = 21 DAT, 160 g ai/ha imazapyr + 0.25% NIS

Compound: COCc1cnc(C2=NC(C)(C(C)C)C(=O)N2)c(C(=O)O)c1 (stereo not shown) [imazamox]
- AHAS activity, % of untreated control [1]: 59%
- AHAS activity, % of untreated control [2]: 36%
- AHAS activity, % of untreated control [3]: 69%
- Phytotoxicity Rating (% Crop Injury) [4, 18]: 3.3%
- Phytotoxicity Rating (% Crop Injury) [4, 19]: 3.3%
- Phytotoxicity Rating (% Crop Injury) [4, 20]: 10.0%
- Phytotoxicity Rating (% Crop Injury) [4, 21]: 0.0%
- Phytotoxicity Rating (% Crop Injury) [4, 22]: 0.0%
- Phytotoxicity Rating (% Crop Injury) [4, 23]: 1.7%
- Phytotoxicity Rating (% Crop Injury) [5, 18]: 3.3%
- Phytotoxicity Rating (% Crop Injury) [5, 19]: 5.0%
- Phytotoxicity Rating (% Crop Injury) [5, 20]: 10.0%
- Phytotoxicity Rating (% Crop Injury) [5, 21]: 0.0%
- Phytotoxicity Rating (% Crop Injury) [5, 22]: 1.7%
- Phytotoxicity Rating (% Crop Injury) [5, 23]: 3.3%
- Phytotoxicity Rating (% Crop Injury) [6, 18]: 5.0%
- Phytotoxicity Rating (% Crop Injury) [6, 19]: 6.7%
- Phytotoxicity Rating (% Crop Injury) [6, 20]: 11.7%
- Phytotoxicity Rating (% Crop Injury) [6, 21]: 0.0%
- Phytotoxicity Rating (% Crop Injury) [6, 22]: 3.3%
- Phytotoxicity Rating (% Crop Injury) [6, 23]: 5.0%
- Phytotoxicity Rating (% Crop Injury) [7, 18]: 13.3%
- Phytotoxicity Rating (% Crop Injury) [7, 19]: 13.3%
- Phytotoxicity Rating (% Crop Injury) [7, 20]: 25.0%
- Phytotoxicity Rating (% Crop Injury) [7, 21]: 6.7%
- Phytotoxicity Rating (% Crop Injury) [7, 22]: 11.7%
- Phytotoxicity Rating (% Crop Injury) [7, 23]: 28.3%
- Phytotoxicity Rating (% Crop Injury) [8, 18]: 10.0%
- Phytotoxicity Rating (% Crop Injury) [8, 19]: 11.7%
- Phytotoxicity Rating (% Crop Injury) [8, 20]: 16.7%
- Phytotoxicity Rating (% Crop Injury) [8, 21]: 6.7%
- Phytotoxicity Rating (% Crop Injury) [8, 22]: 11.7%
- Phytotoxicity Rating (% Crop Injury) [8, 23]: 30.0%
- Phytotoxicity Rating (% Crop Injury) [9, 18]: 10.0%
- Phytotoxicity Rating (% Crop Injury) [9, 19]: 10.0%
- Phytotoxicity Rating (% Crop Injury) [9, 20]: 11.7%
- Phytotoxicity Rating (% Crop Injury) [9, 21]: 3.3%
- Phytotoxicity Rating (% Crop Injury) [9, 22]: 3.3%
- Phytotoxicity Rating (% Crop Injury) [9, 23]: 3.3%
- Phytotoxicity Rating (% Crop Injury) [10, 18]: 5.0%
- Phytotoxicity Rating (% Crop Injury) [10, 19]: 8.3%
- Phytotoxicity Rating (% Crop Injury) [10, 20]: 26.7%
- Phytotoxicity Rating (% Crop Injury) [10, 21]: 0.0%
- Phytotoxicity Rating (% Crop Injury) [10, 22]: 3.3%
- Phytotoxicity Rating (% Crop Injury) [10, 23]: 21.7%
- Phytotoxicity Rating (% Crop Injury) [11, 18]: 11.7%
- Phytotoxicity Rating (% Crop Injury) [11, 19]: 46.7%
- Phytotoxicity Rating (% Crop Injury) [11, 20]: 60.0%
- Phytotoxicity Rating (% Crop Injury) [11, 21]: 11.7%
- Phytotoxicity Rating (% Crop Injury) [11, 22]: 46.7%
- Phytotoxicity Rating (% Crop Injury) [11, 23]: 76.7%
- Phytotoxicity Rating (% Crop Injury) [12, 18]: 8.3%
- Phytotoxicity Rating (% Crop Injury) [12, 19]: 35.0%
- Phytotoxicity Rating (% Crop Injury) [12, 20]: 48.3%
- Phytotoxicity Rating (% Crop Injury) [12, 21]: 6.7%
- Phytotoxicity Rating (% Crop Injury) [12, 22]: 25.0%
- Phytotoxicity Rating (% Crop Injury) [12, 23]: 73.3%
- Phytotoxicity Rating (% Crop Injury) [13, 18]: 6.7%
- Phytotoxicity Rating (% Crop Injury) [13, 19]: 6.7%
- Phytotoxicity Rating (% Crop Injury) [13, 20]: 18.3%
- Phytotoxicity Rating (% Crop Injury) [13, 21]: 5.0%
- Phytotoxicity Rating (% Crop Injury) [13, 22]: 6.7%
- Phytotoxicity Rating (% Crop Injury) [13, 23]: 15.0%
- Phytotoxicity Rating (% Crop Injury) [14, 18]: 1.7%
- Phytotoxicity Rating (% Crop Injury) [14, 19]: 5.0%
- Phytotoxicity Rating (% Crop Injury) [14, 20]: 10.0%
- Phytotoxicity Rating (% Crop Injury) [14, 21]: 0.0%
- Phytotoxicity Rating (% Crop Injury) [14, 22]: 0.0%
- Phytotoxicity Rating (% Crop Injury) [14, 23]: 3.3%
- Phytotoxicity Rating (% Crop Injury) [15, 18]: 10.0%
- Phytotoxicity Rating (% Crop Injury) [15, 19]: 15.0%
- Phytotoxicity Rating (% Crop Injury) [15, 20]: 23.3%
- Phytotoxicity Rating (% Crop Injury) [15, 21]: 6.7%
- Phytotoxicity Rating (% Crop Injury) [15, 22]: 16.7%
- Phytotoxicity Rating (% Crop Injury) [15, 23]: 31.7%
- Phytotoxicity Rating (% Crop Injury) [16, 18]: 0.0%
- Phytotoxicity Rating (% Crop Injury) [16, 19]: 3.3%
- Phytotoxicity Rating (% Crop Injury) [16, 20]: 11.7%
- Phytotoxicity Rating (% Crop Injury) [16, 21]: 0.0%
- Phytotoxicity Rating (% Crop Injury) [16, 22]: 0.0%
- Phytotoxicity Rating (% Crop Injury) [16, 23]: 3.3%
- Phytotoxicity Rating (% Crop Injury) [17, 18]: 13.3%
- Phytotoxicity Rating (% Crop Injury) [17, 19]: 43.3%
- Phytotoxicity Rating (% Crop Injury) [17, 20]: 56.7%
- Phytotoxicity Rating (% Crop Injury) [17, 21]: 3.3%
- Phytotoxicity Rating (% Crop Injury) [17, 22]: 40.0%
- Phytotoxicity Rating (% Crop Injury) [17, 23]: 78.3%

Compound: CC(C)C1(C)N=C(c2ncccc2C(=O)O)NC1=O (stereo not shown) [imazapyr]
- AHAS activity, % of untreated control [1]: 60%
- AHAS activity, % of untreated control [2]: 42%
- AHAS activity, % of untreated control [3]: 64%
- Phytotoxicity Rating (% Crop Injury) [4, 24]: 3.3%
- Phytotoxicity Rating (% Crop Injury) [4, 25]: 0.0%
- Phytotoxicity Rating (% Crop Injury) [5, 24]: 5.0%
- Phytotoxicity Rating (% Crop Injury) [5, 25]: 1.7%
- Phytotoxicity Rating (% Crop Injury) [6, 24]: 8.3%
- Phytotoxicity Rating (% Crop Injury) [6, 25]: 3.3%
- Phytotoxicity Rating (% Crop Injury) [7, 24]: 13.3%
- Phytotoxicity Rating (% Crop Injury) [7, 25]: 11.7%
- Phytotoxicity Rating (% Crop Injury) [8, 24]: 8.3%
- Phytotoxicity Rating (% Crop Injury) [8, 25]: 21.7%
- Phytotoxicity Rating (% Crop Injury) [9, 24]: 5.0%
- Phytotoxicity Rating (% Crop Injury) [9, 25]: 1.7%
- Phytotoxicity Rating (% Crop Injury) [10, 24]: 8.3%
- Phytotoxicity Rating (% Crop Injury) [10, 25]: 3.3%
- Phytotoxicity Rating (% Crop Injury) [11, 24]: 35.0%
- Phytotoxicity Rating (% Crop Injury) [11, 25]: 43.3%
- Phytotoxicity Rating (% Crop Injury) [12, 24]: 16.7%
- Phytotoxicity Rating (% Crop Injury) [12, 25]: 20.0%
- Phytotoxicity Rating (% Crop Injury) [13, 24]: 11.7%
- Phytotoxicity Rating (% Crop Injury) [13, 25]: 6.7%
- Phytotoxicity Rating (% Crop Injury) [14, 24]: 8.3%
- Phytotoxicity Rating (% Crop Injury) [14, 25]: 5.0%
- Phytotoxicity Rating (% Crop Injury) [15, 24]: 10.0%
- Phytotoxicity Rating (% Crop Injury) [15, 25]: 23.3%
- Phytotoxicity Rating (% Crop Injury) [16, 24]: 3.3%
- Phytotoxicity Rating (% Crop Injury) [16, 25]: 0.0%
- Phytotoxicity Rating (% Crop Injury) [17, 24]: 21.7%
- Phytotoxicity Rating (% Crop Injury) [17, 25]: 36.7%
